From ChEMBL document CHEMBL5543061, “Recent advances of antitumor leading compound Erianin: Mechanisms of action and structural modification” (Eur J Med Chem, 2023)

Experiments:
[1] = tested on: HL-60; assay: Cytotoxicity against human HL-60 cells assessed as reduction in cell viability incubated for 48 hrs by MTT assay; format: functional, cell-based; settings: HL-60, 48 h
[2] = tested on: HepG2; assay: Anticancer activity against human HepG2 cells assessed as reduction in cell viability; format: functional, cell-based
[3] = tested on: HeLa; assay: Cytotoxicity against human HeLa cells assessed as reduction in cell growth incubated for 72 hrs by MTT assay; format: functional, cell-based
[4] = tested on: HeLa; assay: Antiproliferative activity against human HeLa cells assessed as reduction in cell viability by MTT assay; format: functional, cell-based
[5] = tested on: A2780cisR; assay: Antiproliferative activity against human cisplatin-resistant A2780 cells assessed as reduction in cell viability incubated for 72 hrs by MTS assay; format: functional, cell-based
[6] = tested on: HCT-116; assay: Cytotoxicity against human HCT-116 cells assessed as reduction in cell viability incubated for 72 hrs by MTS assay; format: functional, cell-based; settings: HCT-116, 72 h
[7] = tested on: HepG2; assay: Antiproliferative activity against human HepG2 cells assessed as reduction in cell growth; format: functional, cell-based
[8] = tested on: HepG2; assay: Antiproliferative activity against human HepG2 cells assessed as inhibition of cell growth relative to control; format: functional; set-up: scale not given: the % may be the effect or the level left
[9] = tested on: HeLa; assay: Antiproliferative activity against human HeLa cells assessed cell growth reduction incubated for 48 hrs by MTT assay; format: functional, cell-based
[10] = tested on: HepG2; assay: Cytotoxicity against human HepG2 cells; format: functional, cell-based
[11] = tested on: HCT-116; assay: Growth inhibition of human HCT-116 cells; format: functional
[12] = tested on: HCT-116; assay: Growth inhibition of human HCT-116 cells measured for 48 hrs by SRB assay; format: functional
[13] = tested on: HeLa; assay: Cytotoxicity against human HeLa cells assessed as reduction in cell viability after 72 hrs by MTS assay; format: functional, cell-based
[14] = tested on: SW480; assay: Cytotoxicity against human SW480 cells assessed as reduction in cell viability incubated for 72 hrs by celltiter glo assay; format: functional, cell-based; settings: SW480, 72 h
[15] = tested on: A2780; assay: Cytotoxicity against human A2780 cells assessed as reduction in cell viability incubated for 72 hrs by MTS assay; format: functional, cell-based; settings: A2780, 72 h
[16] = tested on: K562; assay: Cytotoxicity against human K562 cells assessed as reduction in cell viability incubated for 72 hrs by MTS assay; format: functional, cell-based; settings: K562, 72 h
[17] = tested on: JIMT-1; assay: Antiproliferative activity against human JIMT-1 cells assessed as reduction in cell viability incubated for 72 hrs by MTS assay; format: functional, cell-based; settings: JIMT-1, 72 h
[18] = tested on: MIA PaCa-2; assay: Cytotoxicity against human MIA PaCa-2 cells assessed as reduction in cell viability incubated for 72 hrs by MTS assay; format: functional, cell-based; settings: MIA PaCa-2, 72 h

Q: How did the IC50 [1] turn out when `COc1ccc(CCc2cc(OC)c(OC)c(OC)c2)cc1OC(=O)CCC(=O)O` was run?
A: 48 nM

Q: `COc1ccc(CCc2cc(OC)c(OC)c(OC)c2)cc1OC(=O)c1c[nH]c2ccccc12` was tested. Which IC50 [2] did it give?
A: > 500 nM

Q: With `COc1ccc(CCc2cc(OC)c(OC)c(OC)c2)cc1OC(=O)c1cnc(C)nc1` as the molecule, how does the IC50 [2] read?
A: > 500 nM

Q: With `COc1cc(CCc2ccc(OC(F)F)c(OP(=O)(O)O)c2)cc(OC)c1OC` as the molecule, how does the IC50 [3] read?
A: 110 nM

Q: For `CCOc1ccc(CCc2cc(OC)c(OC)c(OC)c2)cc1O`, which IC50 [4] is on record?
A: 110 nM

Q: With `Cc1cc(N(C)c2ccc3c(n2)OCCO3)c2ccccc2n1` as the molecule, how does the IC50 [5] read?
A: 0.28 nM

Q: And the IC50 [6]?
A: 20 nM

Q: Which IC50 [7] does the source give for `COc1cc(CCc2ccc(OCCF)c(O)c2)cc(OC)c1OC` here?
A: 72.8 nM

Q: What about the Activity [8] of the same molecule?
A: 80.94%

Q: How did the IC50 [9] turn out when `COc1cc(CCc2ccc(OC(C)(F)F)cc2)cc(OC)c1OC` was run?
A: 110 nM

Q: `COc1ccc(CCc2cc(OC)c(OC)c(OC)c2)cc1OC(=O)c1cncc(Cl)c1` was tested. Which IC50 [10] did it give?
A: 32.4 nM

Q: For `COc1cccc2c(N(C)c3ccc4c(c3)c3ccccc3n4C)cc(C)nc12`, which IC50 [6] is on record?
A: 21 nM

Q: Which IC50 [1] does the source give for `COc1ccc(CCc2cc(OC)c(OC)c(OC)c2)cc1OC(=O)CCC(=O)Oc1cc(CCc2cc(OC)c(OC)c(OC)c2)ccc1OC` here?
A: 82 nM

Q: Which GI50 [11] does the source give for `COc1cc(C(C)c2ccc3c(ccn3C)c2)cc(OC)c1OC` (stereo not drawn) here?
A: 29 nM

Q: `COc1ccc(CCc2cc(OC)c(OC)c(OC)c2)cc1OC(=O)c1cncc(Br)c1` was tested. Which IC50 [10] did it give?
A: 13.5 nM

Q: Which IC50 [6] does the source give for `CN(c1ccc2c(c1)c1ccccc1n2C)c1nc(Cl)nc2ccccc12` here?
A: 1 nM

Q: How did the IC50 [4] turn out when `COc1ccc(CCc2cc(OC)c(OC)c(OC)c2)cc1N` was run?
A: 160 nM

Q: For `COc1ccc(CCc2cc(OC)c(OC)c(OC)c2)cc1OC(=O)c1ccnnc1`, which IC50 [2] is on record?
A: > 500 nM

Q: `COc1ccc(C(C)c2cc(OC)c(OC)c(OC)c2)cc1N` (stereo not drawn) was tested. Which GI50 [12] did it give?
A: 28 nM

Q: What about the GI50 [11] of the same molecule?
A: 60 nM

Q: For `COc1cc(CCc2ccc(OC(F)F)c(NC(=O)CN)c2)cc(OC)c1OC`, which IC50 [3] is on record?
A: 70 nM

Q: Which IC50 [6] does the source give for `CN(c1ccc2c(ccn2C)c1)c1cc(C(F)(F)F)nc2ccccc12` here?
A: 3 nM

Q: How did the IC50 [13] turn out when `COc1ccc(CCc2cc(OC)c(OC)c(OC)c2)cc1OC(=O)CCCCCNC(=O)CCCC[C@@H]1SC[C@@H]2NC(=O)N[C@@H]21` was run?
A: 26 nM

Q: For `COc1ccc(C(CC#N)c2cc(OC)c(OC)c(OC)c2)cc1O` (stereo not drawn), which GI50 [12] is on record?
A: 50 nM

Q: What about the GI50 [11] of the same molecule?
A: 50 nM

Q: `COc1ccc(C(C)c2cc(OC)c(OC)c(OC)c2)nc1` (stereo not drawn) was tested. Which GI50 [11] did it give?
A: 60 nM

Q: How did the IC50 [2] turn out when `COc1ccc(CCc2cc(OC)c(OC)c(OC)c2)cc1OC(=O)c1cccnc1` was run?
A: > 500 nM

Q: For `COc1cc(CCc2ccc(OC(F)F)c(O)c2)cc(OC)c1OC`, which IC50 [14] is on record?
A: 180 nM

Q: How did the GI50 [11] turn out when `COc1ccc(C(C)c2cc(C)c(OC)c(OC)c2)cc1OP(=O)(O)O` (stereo not drawn) was run?
A: 100 nM

Q: For `CCOc1cc(C(C)c2ccc(OC)c(N)c2)ccc1OC` (stereo not drawn), which GI50 [12] is on record?
A: 6000 nM

Q: For `COc1ccc(CCc2cc(OC)c(OC)c(OC)c2)cc1OC(=O)c1ccsc1`, which IC50 [2] is on record?
A: > 500 nM

Q: `COc1cc(CCc2ccc(OC(C)(F)F)cc2N)cc(OC)c1OC` was tested. Which IC50 [9] did it give?
A: 460 nM

Q: How did the IC50 [14] turn out when `COc1ccc(/C=C\c2cc(OC)c(OC)c(OC)c2)cc1O` [COMBRETASTATIN A4] was run?
A: 270 nM

Q: Which IC50 [2] does the source give for `COc1ccc(CCc2cc(OC)c(OC)c(OC)c2)cc1OC(=O)c1cncnc1` here?
A: > 500 nM

Q: How did the IC50 [15] turn out when `CN(c1ccc2c(ccn2C)n1)c1nc(Cl)nc2ccccc12` was run?
A: 0.24 nM

Q: What about the IC50 [16] of the same molecule?
A: 0.24 nM

Q: What about the IC50 [17] of the same molecule?
A: 0.24 nM

Q: What about the IC50 [18] of the same molecule?
A: 0.24 nM

Q: Which IC50 [9] does the source give for `COc1cc(CCc2ccc(OC(C)(F)F)cc2[N+](=O)[O-])cc(OC)c1OC` here?
A: 130 nM

Q: With `COc1ccc(CCc2cc(OC)c(OC)c(OC)c2)cc1OC(=O)c1cscn1` as the molecule, how does the IC50 [2] read?
A: > 500 nM

Q: Which IC50 [4] does the source give for `CCOc1ccc(CCc2cc(OC)c(OC)c(OC)c2)cc1N` here?
A: 200 nM

Q: Which IC50 [6] does the source give for `CN(c1ccc2c(c1)c1ccccc1n2C)c1cc(Cl)nc2ccccc12` here?
A: 16 nM

Q: For `COc1ccc(N(C)c2cc(C)nc3ccccc23)nc1N`, which IC50 [6] is on record?
A: 1 nM

Q: How did the IC50 [2] turn out when `COc1ccc(CCc2cc(OC)c(OC)c(OC)c2)cc1OC(=O)c1ccoc1` was run?
A: > 500 nM

Q: Which IC50 [6] does the source give for `Cc1nc(N(C)c2ccc3c(c2)c2ccccc2n3C)c2ccccc2n1` here?
A: 2 nM

Q: How did the IC50 [7] turn out when `CCCOc1ccc(CCc2cc(OC)c(OC)c(OC)c2)cc1O` was run?
A: > 2000 nM

Q: `COc1cc(CCc2ccc(OC(=O)CCn3cc(F)c(=O)[nH]c3=O)c(O)c2)cc(OC)c1OC` was tested. Which IC50 [7] did it give?
A: > 500 nM

Q: Which results are given for `Cc1cc(N(C)c2ccc3c(c2)c2ccccc2n3C)c2ccccc2n1`?
A: IC50 [5]: 0.24 nM; IC50 [15]: 0.28 nM; IC50 [16]: 0.28 nM; IC50 [17]: 0.28 nM; IC50 [18]: 0.28 nM

Q: For `COc1cc(CCc2ccc(C(C)(F)F)cc2NC(=O)CN)cc(OC)c1OC`, which IC50 [9] is on record?
A: 50 nM

Q: For `COc1ccc(CCc2cc(OC)c(OC)c(OC)c2)cc1OC(=O)CCCC[C@H]1SC[C@H]2NC(=O)N[C@H]21`, which IC50 [13] is on record?
A: 494 nM

Q: How did the GI50 [12] turn out when `COc1cc(OC)cc(C(C)c2ccc(OC)c(N)c2)c1` (stereo not drawn) was run?
A: 300 nM

Q: For `COc1ccc(C(c2cc(OC)c(OC)c(OC)c2)C(F)F)cc1O` (stereo not drawn), which GI50 [12] is on record?
A: 30 nM

Q: And the GI50 [11]?
A: 30 nM

Q: Which GI50 [12] does the source give for `COc1ccc(Cc2cc(OC)c(OC)c(OC)c2)cc1O` here?
A: 6000 nM
